Assay results published in publication PMC2493416 (Anesthesia and analgesia, 2008).

Legend:
[1] = molecular target: N-methyl-D-aspartate receptor (NMDAR) NR1/NR2B (Homo sapiens, UniProt Q05586+Q13224); experiment: two-electrode voltage clamp in oocytes, inhibition concentration-response; type: cell-based
[2] = molecular target: γ-aminobutyric acid type A receptor (GABAAR) α1β2γ2s (Homo sapiens, UniProt P14867+P47870); experiment: whole-cell patch clamp, shift of GABA EC50; type: cell-based
γ-aminobutyric acid type A receptor (GABAAR) α1β2γ2s, sequence (P14867 28-456): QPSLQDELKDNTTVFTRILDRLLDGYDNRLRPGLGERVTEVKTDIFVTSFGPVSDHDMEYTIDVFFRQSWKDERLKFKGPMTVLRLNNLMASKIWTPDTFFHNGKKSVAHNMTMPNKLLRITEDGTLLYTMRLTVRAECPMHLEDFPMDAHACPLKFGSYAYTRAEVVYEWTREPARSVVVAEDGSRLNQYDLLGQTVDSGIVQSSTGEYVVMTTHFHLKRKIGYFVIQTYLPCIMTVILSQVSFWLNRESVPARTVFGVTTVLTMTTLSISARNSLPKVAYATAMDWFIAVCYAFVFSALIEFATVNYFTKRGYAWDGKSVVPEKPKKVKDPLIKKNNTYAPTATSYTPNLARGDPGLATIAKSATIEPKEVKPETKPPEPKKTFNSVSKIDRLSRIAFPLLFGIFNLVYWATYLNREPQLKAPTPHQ
γ-aminobutyric acid type A receptor (GABAAR) α1β2γ2s, sequence (P47870 26-512): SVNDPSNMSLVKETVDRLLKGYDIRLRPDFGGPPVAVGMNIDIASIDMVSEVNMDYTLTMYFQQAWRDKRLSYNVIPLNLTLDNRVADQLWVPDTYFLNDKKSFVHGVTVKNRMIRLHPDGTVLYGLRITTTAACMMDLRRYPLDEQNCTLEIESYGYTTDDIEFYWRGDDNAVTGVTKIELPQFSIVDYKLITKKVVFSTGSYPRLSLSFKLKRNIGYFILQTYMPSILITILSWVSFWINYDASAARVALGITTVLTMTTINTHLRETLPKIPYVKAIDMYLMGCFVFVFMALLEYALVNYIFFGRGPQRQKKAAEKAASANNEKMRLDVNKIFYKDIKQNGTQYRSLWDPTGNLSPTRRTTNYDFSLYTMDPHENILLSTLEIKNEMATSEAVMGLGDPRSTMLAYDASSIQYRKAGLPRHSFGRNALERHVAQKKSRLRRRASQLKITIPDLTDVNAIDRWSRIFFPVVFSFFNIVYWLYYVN
γ-aminobutyric acid type A receptor (GABAAR) α1β2γ2s, sequence (P18507 40-475 partner): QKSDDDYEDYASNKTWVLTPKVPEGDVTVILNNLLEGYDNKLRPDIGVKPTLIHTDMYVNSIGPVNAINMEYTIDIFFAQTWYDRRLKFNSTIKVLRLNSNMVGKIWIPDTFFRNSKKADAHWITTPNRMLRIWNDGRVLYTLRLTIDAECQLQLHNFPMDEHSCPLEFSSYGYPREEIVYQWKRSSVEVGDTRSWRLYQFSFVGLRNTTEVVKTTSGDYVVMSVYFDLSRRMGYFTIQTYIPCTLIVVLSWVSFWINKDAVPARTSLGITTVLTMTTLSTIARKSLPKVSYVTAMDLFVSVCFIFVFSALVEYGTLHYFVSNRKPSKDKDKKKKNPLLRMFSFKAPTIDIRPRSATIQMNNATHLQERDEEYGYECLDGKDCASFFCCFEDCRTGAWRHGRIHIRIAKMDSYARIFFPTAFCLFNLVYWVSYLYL

N-methyl-D-aspartate receptor (NMDAR) NR1/NR2B, sequence (Q13224 27-1484, other chains not shown): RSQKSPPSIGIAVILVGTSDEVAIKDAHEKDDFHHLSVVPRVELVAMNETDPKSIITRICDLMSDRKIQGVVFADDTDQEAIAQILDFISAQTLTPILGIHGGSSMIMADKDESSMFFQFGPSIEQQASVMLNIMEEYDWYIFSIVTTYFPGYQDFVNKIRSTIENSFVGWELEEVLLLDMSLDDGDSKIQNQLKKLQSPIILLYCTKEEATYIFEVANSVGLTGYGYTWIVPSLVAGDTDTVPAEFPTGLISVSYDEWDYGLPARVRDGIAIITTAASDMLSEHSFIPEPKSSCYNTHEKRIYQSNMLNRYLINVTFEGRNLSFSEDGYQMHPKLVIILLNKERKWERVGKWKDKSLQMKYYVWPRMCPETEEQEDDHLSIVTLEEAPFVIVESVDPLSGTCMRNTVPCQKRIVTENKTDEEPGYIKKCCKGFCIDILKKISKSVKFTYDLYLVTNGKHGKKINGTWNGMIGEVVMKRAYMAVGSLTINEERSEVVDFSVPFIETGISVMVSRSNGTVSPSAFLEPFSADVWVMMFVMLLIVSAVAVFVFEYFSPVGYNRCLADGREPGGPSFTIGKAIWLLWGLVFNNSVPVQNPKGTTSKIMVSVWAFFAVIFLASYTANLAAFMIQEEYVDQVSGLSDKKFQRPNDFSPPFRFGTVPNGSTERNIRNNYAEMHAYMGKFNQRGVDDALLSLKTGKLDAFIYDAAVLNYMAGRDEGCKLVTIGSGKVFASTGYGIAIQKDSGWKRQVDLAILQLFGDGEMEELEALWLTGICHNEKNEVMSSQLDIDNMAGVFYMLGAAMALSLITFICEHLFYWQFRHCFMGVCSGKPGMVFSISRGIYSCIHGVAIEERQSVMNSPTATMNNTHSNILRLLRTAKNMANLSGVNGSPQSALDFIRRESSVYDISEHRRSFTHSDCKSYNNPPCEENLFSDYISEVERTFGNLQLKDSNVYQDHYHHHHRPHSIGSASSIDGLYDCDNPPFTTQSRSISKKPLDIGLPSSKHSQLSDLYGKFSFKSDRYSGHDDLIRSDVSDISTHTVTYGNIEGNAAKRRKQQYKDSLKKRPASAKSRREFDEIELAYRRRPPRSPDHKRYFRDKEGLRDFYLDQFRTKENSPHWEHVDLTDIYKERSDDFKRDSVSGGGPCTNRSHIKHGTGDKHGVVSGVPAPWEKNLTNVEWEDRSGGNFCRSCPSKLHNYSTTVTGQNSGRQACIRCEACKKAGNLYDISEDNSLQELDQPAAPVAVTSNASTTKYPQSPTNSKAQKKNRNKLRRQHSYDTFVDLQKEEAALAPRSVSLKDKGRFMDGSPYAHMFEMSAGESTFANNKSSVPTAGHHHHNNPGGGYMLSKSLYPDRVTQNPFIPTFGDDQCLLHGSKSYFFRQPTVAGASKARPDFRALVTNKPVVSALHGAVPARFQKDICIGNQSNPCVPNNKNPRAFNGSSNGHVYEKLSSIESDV

Row | Compound | IC50 [1] [µM] | whole-cell patch clamp, shift of GABA EC50 [2]
1 | FC(F)OC(Cl)C(F)(F)F (stereo not drawn) [ISO, isoflurane] | 2400 | –
2 | c1ccccc1 [benzene] | 340 ± 40 | –
3 | ClC(Cl)Cl [chloroform] | – | Both halothane and chloroform decreased the GABA EC50 in a dose dependent and saturable manner
